Measured values reported in patent publication US11000581B2, “Engineering gut commensal bacteria to express heterologous proteins in their outer membrane vesicles (OMVs) for delivery to the GI-tract” (QUADRAM INSTITUTE BIOSCIENCE, priority 2016, dated 2021).
In brackets after ≈: the same amount, converted by molar mass. Like-named read-outs stand apart in the source and are kept apart here.

Legend:
B. thetaiotaomicron = assay: Minimum inhibitory concentration of ampicillin for variant strains with or without mannan; assay type: cell-based; settings: Bacteroides thetaiotaomicron, read-out: minimum inhibitory concentration (MIC) of ampicillin
Description: Since optimization of this novel gene expression system was based upon the use of a heterologous reporter gene, the system was validated by determining if it can be used to study B. thetaiotaomicron genes. For this purpose, the complementation of a deletion mutant of BtcepA (Stentz et al., 2015), a cephalosporinase gene involved in the resistance of bacterial cells to β-lactam antibiotics, was undertaken. The primer pair Lactamase_F and Lactamase_EcoRI_R was used to amplify an 885-bp region from B. thetaiotaomicron VPI-5482 genomic DNA encoding BtcepA. […] The β-lactamase activity was measured after 2 h of induction with increasing concentrations of mannan (Table 4). […] Periplasmic proteins were prepared as described by Stentz et al. (Stentz et al., 2015). β-lactamase activity was assessed spectrophotometrically by hydrolysis of nitrocefin according to the manufacturer's instructions (Calbiochem). […] The basal level measured for the low expression system was negligible since it represented only 2.7% of the activity measured for the wild-type control strain. To establish how these measured activities translate into resistance to β-lactam antibiotics the minimum inhibitory concentration (MIC) of the β-lactam antibiotic ampicillin was determined for each variant strain grown in the presence or absence of mannan.

GH361 [1] = assay: MIC of ceftriaxone for GH361; assay type: cell-based, B. thetaiotaomicron; settings: Bacteroides thetaiotaomicron
Description: “α-mannan is a fungal cell wall glycan that contains α-mannosidic linkages similar to those found in the core regions of N-linked glycans present on secreted mucus and epithelial surfaces” (Martens et al., 2011). However, expression levels of the PUL genes involved in mannan utilization in mice fed a diet lacking exogenous α-mannan were only partial when compared to other PULs showing high activity in vivo (Martens et al., 2008). The effectiveness of the mannan induced system was tested in vivo in seven-week-old male C57BL/6J WT mice with established B. thetaiotaomicron within the intestine, housed in a conventional animal facility after treating for 3 days with 1 mg/ml ampicillin and 1 mg/ml neomycin administered via drinking water. To achieve this, the strain GH361 containing the BtCepA gene controlled by the inducible low expression system (Table 1) was administered by oral gavage (1×10^8 colony-forming units (CFU) in 100 μl of phosphate buffered saline) to two groups of 4 mice. […] The MICs of ceftriaxone determined for GH361 were 8 mg/L when cells were grown in the absence of mannan and 64 mg/L when mannan was added to the growth medium. […]

GH361 [2] = assay: Mannan-induced BtCepA expression in the mouse gut (ceftriaxone challenge, fecal CFU); assay type: in vivo, mice
Description: FIG. 4. In vivo induction of ceftriaxone resistance using exogenous α-mannan. Crosses indicate times of i.p. injections. GA: Group A of mice received mannan in their drinking water. GB: Group B of mice which were given access to regular drinking water. CRO: ceftriaxome.
“α-mannan is a fungal cell wall glycan that contains α-mannosidic linkages similar to those found in the core regions of N-linked glycans present on secreted mucus and epithelial surfaces” (Martens et al., 2011). However, expression levels of the PUL genes involved in mannan utilization in mice fed a diet lacking exogenous α-mannan were only partial when compared to other PULs showing high activity in vivo (Martens et al., 2008). The effectiveness of the mannan induced system was tested in vivo in seven-week-old male C57BL/6J WT mice with established B. thetaiotaomicron within the intestine, housed in a conventional animal facility after treating for 3 days with 1 mg/ml ampicillin and 1 mg/ml neomycin administered via drinking water. To achieve this, the strain GH361 containing the BtCepA gene controlled by the inducible low expression system (Table 1) was administered by oral gavage (1×10^8 colony-forming units (CFU) in 100 μl of phosphate buffered saline) to two groups of 4 mice. One of the groups (Group A) were given drinking water with containing 2.5% (v/v) mannan-oligosaccharide supplement (ActiveMOS, Orffa, Werkendam, The Netherlands) prepared treating the powder (10% w/v) with 1% NaOH at 100° C. for 1 h, cooling and neutralizing to pH7 with dilute HCl solution (Huang et al., 2010). […] Both groups of mice were challenged every other day via i.p. injection with ceftriaxone (0.4 mg/mice), a third-generation cephalosporin that is excreted via the biliary route and affects the colonic microbiota (Arvidsson et al., 1982). The MICs of ceftriaxone determined for GH361 were 8 mg/L when cells were grown in the absence of mannan and 64 mg/L when mannan was added to the growth medium. […]

Which MIC (B. thetaiotaomicron) does the source give for CC1(C)S[C@@H]2[C@H](NC(=O)[C@H](N)c3ccccc3)C(=O)N2[C@H]1C(=O)O [ampicillin] here?
The MIC was 4 to 2050 µg/mL (≈ 11.4 to 5860 µM).

Which results are given for CO/N=C(\C(=O)N[C@@H]1C(=O)N2C(C(=O)O)=C(CSc3nc(=O)c(=O)[nH]n3C)CS[C@H]12)c1csc(N)n1 [ceftriaxone]?
MIC (GH361 [1]; read-out: MIC of ceftriaxone, GH361, mannan added to the growth medium): 64 µg/mL; MIC (GH361 [1]; read-out: MIC of ceftriaxone, GH361 grown in the absence of mannan): 8 µg/mL; effect on GH361 population levels (GH361 [2]; ceftriaxone increased to 0.8 mg, both groups): decreased significantly; effect on levels of GH361 (CFU in fecal samples) (GH361 [2]; group A given mannan in drinking water, three successive i.p. doses 0.4 mg/mice): no effect; decrease of levels of GH361 (CFU in fecal samples) (GH361 [2]; group B not given mannan, three successive i.p. doses 0.4 mg/mice): approximately 15 fold
